Results as given in patent US4515708A, “Corrosion inhibitors” (Exxon Research & Engineering Co., priority 1982, dated 1985).
Counter-ions that a name gives are not always drawn. Like-named read-outs stand apart in the source and are kept apart here.

Assays:
[1] = Corrosion Test 1 (dynamic wheel test; 3 wt% brine/Mentor 28; CO2 + H2S); settings: for % Protection: 24 h, 70° C.
Procedure: (§1) For each compound three mild steel coupons (approximately 100 mm×12 mm×1.5 mm) were tested at each concentration. Each was contacted in a 250 ml bottle with 200 ml of a test fluid either saturated with a carbon dioxide at 20° C. or containing 100 ppm hydrogen sulphide or having both CO2 and H2 S present in those amounts. The test fluid was treated with a 30% aqueous solution of the compound under test at 2, 10, 50 and 250 ppm except where indicated to the contrary. The coupon was subjected to a dynamic wheel test in which the bottle was mounted radially on the periphery of 650 mm diameter wheel which was rotated at about 40 rpm for 24 hours at 70° C. The weight loss was obtained, and also measured in a control experiment where no inhibitor was present. From this the % protection was calculated as % reduction in weight loss.
Test fluid: 100 ml 3 wt% brine/100 ml Mentor 28 (Mentor®28 is a depolarised kerosene available from Exxon Chemical Company)
(§2) Corrosives: Saturated CO2 +100 ppm H2 S

[2] = Solubility Test (35 wt% solution in isopropylalcohol shaken with water, brine or heptane); type: physicochemical; settings: for SOLUBILITY IN: Brine: 0.3 ml of 35 wt% IPA solution in 10 ml 5 wt% NaCl solution
Procedure: The active material under test was made up into a 35 wt% solution in isopropylalcohol (IPA). 0.3 ml of this solution was shaken with 10 ml of each of the liquids in which solubility is to be tested: water, 5 wt% NaCl solution (brine) and heptane. The mixture was observed after 30 minutes and 24 hours.

[3] = Emulsion Test (3 wt% brine / heptane); type: physicochemical; design: Emulsion thickness after 30 mins: unit not given here; settings: for Time to break emulsion: 1 ml of 35 wt% IPA solution, 50 ml 3 wt% brine, 50 ml heptane; for Appearance after 30 mins, hydrocarbon: hydrocarbon layer; for Appearance after 30 mins, hydrocarbon / Appearance after 30 mins, water / Emulsion thickness after 30 mins: 50 ml 3 wt% brine/50 ml heptane; for Appearance after 30 mins, water: water layer
Procedure: 1 ml of the solutions used for Test A was shaken with 50 ml of 3 wt% brine and 50 ml of heptane for 1 minute in a 150 ml bottle. The emulsion was observed, and the time noted for the emulsion to break and form a clean interface with clear liquid layers. If at 30 minutes this had not occurred, the appearance was recorded together with the thickness of any persisting emulsion.

[4] = Corrosion Test 2 (dynamic wheel test; 3 wt% brine; CO2 + H2S); settings: 24 h, 70° C.
Procedure: as §1
Test Fluid: 200 ml 3 wt% brine
as §2

[5] = Corrosion Test 4 (dynamic wheel test; 3 wt% brine + Mentor 28; H2S); settings: 24 h, 70° C.
Procedure: as §1
Test fluid: 100 ml 3 wt% brine+100 ml Mentor 28
Corrosives: 100 ppm H2 S (prior nitrogen purge)

[6] = 2 ppm, * active material added as undiluted compound
[7] = 10 ppm, * active material added as undiluted compound
[8] = 50 ppm, * active material added as undiluted compound
[9] = 250 ppm, * active material added as undiluted compound
[10] = 0.3 ml of 35 wt% IPA solution in 10 ml heptane, 30 minutes and 24 hours
[11] = 0.3 ml of 35 wt% IPA solution in 10 ml water, observed after 30 minutes and 24 hours

Structure (SMILES) | % Protection ([1]; 2 ppm, 30% solution) [%] | % Protection ([1]; 10 ppm, 30% solution) [%] | % Protection ([1]; 50 ppm, 30% solution) [%] | % Protection ([1]; 250 ppm, 30% solution) [%] | Time to break emulsion [3] [min] | Appearance after 30 mins, hydrocarbon [3] | Appearance after 30 mins, water [3] | SOLUBILITY IN: Heptane [2, 10] | SOLUBILITY IN: Water [2, 11] | also measured
NCCc1ccccn1 [2-aminoethyl pyridine, reference compound] | 0 | 45 | 55 | 86 | – | – | – | – | – | –
CCc1ccccn1 [2-ethylpyridine, reference compound] | 3 | 7 | 16 | 23 | – | – | – | – | – | –
CCc1ccccn1 [2-ethylpyridine.HCL, reference compound] | 10 | 10 | 24 | 18 | – | – | – | – | – | –
CCc1ccncc1 [4-ethylpyridine.HCL, reference compound] | 2 | 5 | 13 | 16 | – | – | – | – | – | –
CCCCCCCCCCCCNCCc1ccccn1 [21 acetate salt] | 21 | 74 | 94 | 96 | – | – | – | – | – | –
CCCCCCCCNCCc1ccccn1 [Example 2] | – | – | – | – | 5 | clear | clear | – | – | SOLUBILITY IN: Heptane [2]: S; % Protection [1, 6]: 50%; % Protection [1, 7]: 82%; % Protection [1, 8]: 85%; % Protection [1, 9]: 89%; % Protection ([4]; 2 ppm): 37%; % Protection ([4]; 10 ppm): 34%; % Protection ([4]; 50 ppm): 84%; % Protection ([4]; 250 ppm): 94%
CCCCCCCCCCNCCc1ccccn1 [Example 3] | 13 | 63 | 82 | 99 | > 30 | hazy | hazy | S | S | % Protection ([4]; 2 ppm): 7%; % Protection ([4]; 10 ppm): 37%; % Protection ([4]; 50 ppm): 91%; % Protection ([4]; 250 ppm): 97%; % Protection ([5]; 2 ppm): 0%; % Protection ([5]; 10 ppm): 42%; % Protection ([5]; 50 ppm): 65%; % Protection ([5]; 250 ppm): 76%
CCCCCCCCCCCCCCNCCc1ccccn1 [Example 5] | 0 | 43 | 46 | 90 | > 30 | hazy | hazy | S | S | Emulsion thickness after 30 mins [3]: 0.5; % Protection ([4]; 2 ppm): 3%; % Protection ([4]; 10 ppm): 48%; % Protection ([4]; 50 ppm): 93%; % Protection ([4]; 250 ppm): 94%
NCCCNCCc1ccccn1 [Example 14] | – | – | – | – | > 30 | clear | hazy | S | S | SOLUBILITY IN: Brine ([2]; 30 minutes and 24 hours): S; % Protection [1, 6]: 47%; % Protection [1, 7]: 70%; % Protection [1, 8]: 70%; % Protection [1, 9]: 92%; % Protection ([4]; 2 ppm): 26%; % Protection ([4]; 10 ppm): 64%; % Protection ([4]; 50 ppm): 74%; % Protection ([4]; 250 ppm): 90%
CCCCCCCCCCCCNCCc1ccccn1 [Example 21, N-dodecyl-β-(2-pyridyl)-ethylamine] | 17 | 51 | 86 | 93 | – | – | – | – | – | corrosion protection compared with Example 4 ([1]; after addition of acetic acid): substantially identical protection to that seen in Example 4; corrosion protection compared with Example 4 ([1]; unsalified product): inferior corrosion protection to Example 4
CCCCCCCCNCCc1ccncc1 [Example 23] | 38 | 49 | 83 | 92 | 10 | clear | clear | – | – | SOLUBILITY IN: Heptane [2]: S; SOLUBILITY IN: Water [2]: S
CCCCCCCCCCNCCc1ccncc1 [Example 24] | 58 | 80 | 88 | 95 | > 30 | hazy | hazy | S | S | –
CCCCCCCCCCCCCCNCCc1ccncc1 [Example 26] | – | – | – | – | > 30 | clear | hazy | S | S | Emulsion thickness after 30 mins [3]: 1.0
CCCCCCCCCCCCCCCCNCCc1ccncc1 [Example 27] | 39 | 69 | 84 | 96 | > 30 | clear | hazy | S | S | Emulsion thickness after 30 mins [3]: 3.0; % Protection ([4]; 2 ppm): 40%; % Protection ([4]; 10 ppm): 47%; % Protection ([4]; 50 ppm): 84%; % Protection ([4]; 250 ppm): 94%
c1ccc(CNCCc2ccncc2)cc1 [Example 29] | 25 | 56 | 60 | 67 | 1 | clear | clear | – | – | –
NCCNCCc1ccncc1 [Example 32] | – | – | – | – | > 30 | clear | hazy | – | – | –
NCCCNCCc1ccncc1 [Example 33] | – | – | – | – | 1 | clear | clear | – | S | SOLUBILITY IN: Brine ([2]; 30 minutes and 24 hours): S
